The source of these data is patent US20260167619A2, “INDOLINE COMPOUNDS AND DERIVATIVES AS EGFR INHIBITORS” (BeOne Medicines I GmbH, priority 2020, published 2026).

pIC50: −log10 of the molar value.

Test [1] deals with EGFR(Dell9_T790M_C797S) (aa 669-1210, in house) (Homo sapiens, UniProt P00533, T790M/C797S, form not given). Kind of test: Biochemical EGFR inhibition assay (TR-FRET), Del19/T790M/C797S mutant. Particulars: ATP at Km, 15 min pre-incubation, 60 min reaction; read-out: Del_TM_CS (Km ATP) IC50. The method in brief: (§1)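 Recombinant kinase domains pre-incubated with compound 15 min at room temperature in HEPES pH 7.5 buffer, then reacted 60 min with ATP at Km and biotin-poly GT substrate. Phosphotyrosine detected by TR-FRET (Eu-anti-pTyr/streptavidin-XL665, 665/620 nm ratio); IC50 from four-parameter logistic fit.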
EGFR(Dell9_T790M_C797S) (aa 669-1210, in house), sequence (P00533 with tags, fused parts or gaps DEL746-750/T790M/C797S, form open): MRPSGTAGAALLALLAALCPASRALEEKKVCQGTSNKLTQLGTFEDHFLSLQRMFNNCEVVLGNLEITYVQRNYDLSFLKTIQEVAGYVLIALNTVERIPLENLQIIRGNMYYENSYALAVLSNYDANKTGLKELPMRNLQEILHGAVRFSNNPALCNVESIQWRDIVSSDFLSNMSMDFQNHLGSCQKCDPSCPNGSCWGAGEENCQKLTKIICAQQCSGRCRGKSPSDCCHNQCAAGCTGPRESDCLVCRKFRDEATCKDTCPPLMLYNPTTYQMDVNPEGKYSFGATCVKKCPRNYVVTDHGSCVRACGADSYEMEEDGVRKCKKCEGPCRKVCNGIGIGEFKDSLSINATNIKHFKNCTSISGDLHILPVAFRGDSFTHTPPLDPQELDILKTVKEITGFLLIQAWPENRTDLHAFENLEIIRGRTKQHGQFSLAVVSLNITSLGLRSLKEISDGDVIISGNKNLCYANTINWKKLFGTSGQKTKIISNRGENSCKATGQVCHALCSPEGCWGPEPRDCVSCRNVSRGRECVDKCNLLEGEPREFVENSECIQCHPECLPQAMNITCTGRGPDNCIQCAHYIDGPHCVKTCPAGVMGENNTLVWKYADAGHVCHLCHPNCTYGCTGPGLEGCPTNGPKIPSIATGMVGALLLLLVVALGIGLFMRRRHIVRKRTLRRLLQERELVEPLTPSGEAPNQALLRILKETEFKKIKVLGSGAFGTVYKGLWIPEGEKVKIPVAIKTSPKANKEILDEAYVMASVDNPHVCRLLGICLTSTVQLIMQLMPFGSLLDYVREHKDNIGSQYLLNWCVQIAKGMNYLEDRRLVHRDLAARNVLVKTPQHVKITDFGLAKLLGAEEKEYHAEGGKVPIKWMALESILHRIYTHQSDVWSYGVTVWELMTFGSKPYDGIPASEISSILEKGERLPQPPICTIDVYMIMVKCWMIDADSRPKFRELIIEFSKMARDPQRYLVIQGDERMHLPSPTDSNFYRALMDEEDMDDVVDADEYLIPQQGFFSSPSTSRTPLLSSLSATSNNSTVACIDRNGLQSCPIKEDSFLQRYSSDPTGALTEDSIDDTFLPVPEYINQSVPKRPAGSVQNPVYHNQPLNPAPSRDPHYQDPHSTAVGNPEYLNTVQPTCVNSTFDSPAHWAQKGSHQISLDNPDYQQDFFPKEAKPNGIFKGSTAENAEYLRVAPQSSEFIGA

Test [2] has as its target T1, EGFR (aa668-1210, Invitrogen) (Homo sapiens, UniProt P00533).
T1 construct: EGFR (aa668-1210, Invitrogen); purchased Invitrogen
As to the kind of experiment: Biochemical EGFR inhibition assay (TR-FRET), wild-type EGFR. Conditions: ATP at Km, 15 min pre-incubation, 60 min reaction; read-out: WT (Km ATP) IC50. An outline of the steps: as §1
On the technique in general: Time-resolved FRET reads energy transfer from a long-lived donor to a nearby acceptor.

The next test concerns the target BaF3-WT cells (Homo sapiens, UniProt P00533). Kind of test: Cell antiproliferation assay (CellTiter-Glo), BaF3-WT. The format is cell-based. Conditions: 48 h treatment, read-out: BaF3-WT IC50. How it is done:
(§2) BaF3 cells are treated with compounds diluted in 0.2% DMSO, dilution is done according to the following protocol: (1) make 500× stock solution in DMSO from 5 mM by 5-fold dilution, total 8 doses were included; (2) make 10× solution in cell culture medium by transferring 2 μl 500× stock solution into 98 μl medium; (3) 10 μl of 10× solution is added to cells and incubate for 48 h.
(§3) After 48 h treatment, add 30 μl CellTiter-Glo reagent[CellTiter-Glo® 2.0, (Promega, Cat #G9242)] to each well; seal the plate and incubate 2 min at room temperature on a plate shaker; Allow the plate to incubate at room temperature for 10 minutes to stabilize the luminescent signal. Record luminescence on BMG PheraStar with luminescence protocol.
(§4) The IC50 value of a compound can be obtained by fitting the following equation
(§5) Wherein, X and Y are known values, and IC50, Hillslope, Top and Bottom are the parameters obtained by fitting with software. Y is the inhibition percentage (calculated from the equation), X is the concentration of the compound; IC50 is the concentration of the compound when the 50% inhibition is reached. The smaller the IC50 value is, the stronger the inhibitory ability of the compound is. Vice versa, the higher the IC50 value is, the weaker the ability the inhibitory ability of the compound is; Hillslope represents the slope of the fitted curve, generally around 1 *; Bottom represents the minimum value of the curve obtained by data fitting, which is generally 0%±20%; Top represents the maximum value of the curve obtained by data fitting, which is generally 100%±20%. The experimental data were fitted by calculating and analyzing with Dotmatics data analysis software.
For orientation: In ATP-based viability assays light output follows the ATP content of the culture.

Test [3] deals with T2, EGFR(L858R_T790M_C797S) (aa695-end, Invitrogen) (Homo sapiens, UniProt P00533, C797S/L858R/T790M).
T2 construct: purchased Invitrogen
T2 sequence (P00533 695-1210 T790M/C797S/L858R): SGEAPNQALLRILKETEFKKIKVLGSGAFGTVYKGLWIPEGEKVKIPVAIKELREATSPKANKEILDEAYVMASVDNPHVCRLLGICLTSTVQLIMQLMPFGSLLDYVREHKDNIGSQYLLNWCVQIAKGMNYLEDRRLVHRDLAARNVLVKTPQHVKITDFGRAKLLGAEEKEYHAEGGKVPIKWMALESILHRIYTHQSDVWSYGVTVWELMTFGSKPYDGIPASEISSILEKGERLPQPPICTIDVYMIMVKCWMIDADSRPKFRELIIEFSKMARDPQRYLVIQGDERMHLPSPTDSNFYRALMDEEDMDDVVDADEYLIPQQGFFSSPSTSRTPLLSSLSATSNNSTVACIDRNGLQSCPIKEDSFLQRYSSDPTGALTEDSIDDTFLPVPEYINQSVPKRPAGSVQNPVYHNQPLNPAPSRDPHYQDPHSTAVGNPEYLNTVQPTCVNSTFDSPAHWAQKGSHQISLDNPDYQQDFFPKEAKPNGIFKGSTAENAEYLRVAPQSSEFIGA
Kind of test: Biochemical EGFR inhibition assay (TR-FRET), L858R/T790M/C797S mutant. Conditions: ATP at Km, 15 min pre-incubation, 60 min reaction; read-out: LR_TM_CS (Km ATP) IC50. The method in brief:
as §1

In the next test the target is BaF3-LR_TM_CS cells (Homo sapiens, UniProt P00533, T790M/C797S/L858R, cells depend on it). As to the kind of experiment: Cell antiproliferation assay (CellTiter-Glo), BaF3-LR_TM_CS. Particulars: 48 h treatment, read-out: BaF3-LR_TM_CS IC50. The format is cell-based. How it is done:
as §2, §3, §4, §5

The next test concerns the target BaF3-Del_TM_CS cells (Homo sapiens, UniProt P00533, T790M/C797S, cells depend on it, form not given). Kind of test: Cell antiproliferation assay (CellTiter-Glo), BaF3-Del_TM_CS. The format is cell-based. Particulars: 48 h treatment, read-out: BaF3-Del_TM_CS IC50. How it is done: as §2, §3, §4, §5

T1 sequence (P00533 668-1210): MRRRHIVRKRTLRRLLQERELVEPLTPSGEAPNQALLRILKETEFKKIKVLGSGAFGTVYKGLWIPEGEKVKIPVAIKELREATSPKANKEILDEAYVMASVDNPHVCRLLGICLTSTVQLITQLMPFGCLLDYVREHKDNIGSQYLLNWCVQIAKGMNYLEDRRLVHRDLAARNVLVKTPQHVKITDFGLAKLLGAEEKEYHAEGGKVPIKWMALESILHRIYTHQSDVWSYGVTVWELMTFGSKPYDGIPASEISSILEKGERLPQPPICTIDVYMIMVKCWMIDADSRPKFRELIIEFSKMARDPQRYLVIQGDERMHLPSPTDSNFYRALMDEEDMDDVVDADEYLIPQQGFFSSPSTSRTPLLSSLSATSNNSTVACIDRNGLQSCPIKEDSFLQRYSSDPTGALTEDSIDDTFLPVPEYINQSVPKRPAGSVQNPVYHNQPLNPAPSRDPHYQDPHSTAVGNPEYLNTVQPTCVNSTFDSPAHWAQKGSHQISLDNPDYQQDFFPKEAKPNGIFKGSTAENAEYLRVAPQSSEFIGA
BaF3-WT cells, sequence (P00533 whole entry, change not shown): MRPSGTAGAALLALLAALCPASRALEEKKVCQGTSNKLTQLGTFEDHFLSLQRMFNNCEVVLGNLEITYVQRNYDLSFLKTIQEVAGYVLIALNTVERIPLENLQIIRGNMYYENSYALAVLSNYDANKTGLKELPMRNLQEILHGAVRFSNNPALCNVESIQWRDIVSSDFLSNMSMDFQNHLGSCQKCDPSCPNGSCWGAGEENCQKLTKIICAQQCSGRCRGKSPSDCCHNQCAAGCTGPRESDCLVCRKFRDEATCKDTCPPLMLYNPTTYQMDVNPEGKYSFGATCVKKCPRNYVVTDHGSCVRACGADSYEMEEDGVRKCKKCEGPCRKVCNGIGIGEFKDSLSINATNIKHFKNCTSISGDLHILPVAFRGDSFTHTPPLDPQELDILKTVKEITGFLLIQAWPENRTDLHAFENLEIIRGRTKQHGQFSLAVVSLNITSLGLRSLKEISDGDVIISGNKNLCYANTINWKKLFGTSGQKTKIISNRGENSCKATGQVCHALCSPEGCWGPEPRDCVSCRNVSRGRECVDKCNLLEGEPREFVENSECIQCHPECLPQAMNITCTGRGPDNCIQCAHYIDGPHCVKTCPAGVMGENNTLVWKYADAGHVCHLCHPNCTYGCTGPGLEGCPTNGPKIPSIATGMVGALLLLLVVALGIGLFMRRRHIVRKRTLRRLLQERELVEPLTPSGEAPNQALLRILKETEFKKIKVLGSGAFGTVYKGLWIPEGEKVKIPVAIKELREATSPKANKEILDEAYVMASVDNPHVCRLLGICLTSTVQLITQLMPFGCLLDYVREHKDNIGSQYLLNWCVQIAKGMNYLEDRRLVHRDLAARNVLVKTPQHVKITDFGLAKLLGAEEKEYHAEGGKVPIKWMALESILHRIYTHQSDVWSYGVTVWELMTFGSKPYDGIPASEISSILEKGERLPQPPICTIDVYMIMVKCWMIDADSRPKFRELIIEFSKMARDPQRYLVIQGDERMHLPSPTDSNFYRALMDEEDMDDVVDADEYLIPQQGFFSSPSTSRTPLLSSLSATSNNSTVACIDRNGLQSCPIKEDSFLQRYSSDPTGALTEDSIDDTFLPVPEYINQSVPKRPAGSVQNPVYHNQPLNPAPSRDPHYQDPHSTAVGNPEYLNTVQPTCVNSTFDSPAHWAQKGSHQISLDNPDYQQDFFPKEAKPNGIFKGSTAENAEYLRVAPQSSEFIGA
BaF3-Del_TM_CS cells, sequence (P00533 with tags, fused parts or gaps DEL746-750/T790M/C797S, form open): as the sequence (P00533 with tags, fused parts or gaps DEL746-750/T790M/C797S, form open) above

As for `COc1cc(N2CCC(N3CCN(C)CC3)CC2)ccc1Nc1ncc(Cl)c(Nc2ccc(F)c3c2N(S(C)(=O)=O)CC3)n1` [Example 1, 5-chloro-N^4-(4-fluoro-1-(methylsulfonyl)indolin-7-yl)-N^2-(2-methoxy-4-(4-(4-methylpiperazin-1-yl)piperidin-1-yl)phenyl)pyrimidine-2,4-diamine], the pIC50 – broadly, the IC50 on a negative log10 scale, so that one unit is a factor of ten – in test [1] was 9.89; in test [2], 9.26; in test [3], 10.00. Further, the values for the GI50 on BaF3-WT cells, on BaF3-LR_TM_CS cells and on BaF3-Del_TM_CS cells were 635 nM, 152 nM and 48.2 nM, respectively.
Take `COc1cc(N2CCC(N3CCN(C)CC3)CC2)ccc1Nc1ncc(Cl)c(Nc2ccc(Br)c3c2N(S(C)(=O)=O)CC3)n1` [Example 2, N^4-(4-bromo-1-(methylsulfonyl)indolin-7-yl)-5-chloro-N^2-(2-methoxy-4-(4-(4-methylpiperazin-1-yl)piperidin-1-yl)phenyl)pyrimidine-2,4-diamine]: the pIC50 in test [1] was 9.44; in test [2], 9.19; in test [3], 9.32. Further, the GI50 was 511 nM at BaF3-WT cells, 66.1 nM on BaF3-LR_TM_CS cells and 14.6 nM at BaF3-Del_TM_CS cells.
Regarding `COc1cc(N2CCC(N3CCN(C)CC3)CC2)ccc1Nc1ncc(Cl)c(Nc2ccc(C)c3c2N(S(C)(=O)=O)CC3)n1` [Example 4, 5-chloro-N^2-(2-methoxy-4-(4-(4-methylpiperazin-1-yl)piperidin-1-yl)phenyl)-N^4-(4-methyl-1-(methylsulfonyl)indolin-7-yl)pyrimidine-2,4-diamine], the figures for the pIC50 in test [1], in test [2] and in test [3] were 9.77, 9.31 and 9.57, respectively. Besides, the GI50 on BaF3-WT cells came to 466 nM; on BaF3-LR_TM_CS cells, 57.2 nM; at BaF3-Del_TM_CS cells, 12 nM.
Turning to `COc1cc(N2CCC(N3CCN(C)CC3)CC2)ccc1Nc1ncc(Cl)c(Nc2cc(C)cc3c2N(S(C)(=O)=O)CC3)n1` [Example 5, 5-chloro-N^2-(2-methoxy-4-(4-(4-methylpiperazin-1-yl)piperidin-1-yl)phenyl)-N^4-(5-methyl-1-(methylsulfonyl)indolin-7-yl)pyrimidine-2,4-diamine], the negative-log IC50 (pIC50) was 6.80 in test [1], 6.51 in test [2] and 6.79 in test [3]. Besides, the results for the GI50 at BaF3-WT cells, on BaF3-LR_TM_CS cells and at BaF3-Del_TM_CS cells were 2320 nM, 1290 nM and 971 nM, respectively.
Take `CCCS(=O)(=O)N1CCc2cccc(Nc3nc(Nc4ccc(N5CCC(N6CCN(C)CC6)CC5)cc4OC)ncc3Cl)c21` [Example 6, 5-chloro-N^2-(2-methoxy-4-(4-(4-methylpiperazin-1-yl)piperidin-1-yl)phenyl)-N^4-(1-(propylsulfonyl)indolin-7-yl)pyrimidine-2,4-diamine]: the pIC50 in test [1] was 8.29; in test [2], 8.09; in test [3], 8.74. The results for the GI50 on BaF3-WT cells, at BaF3-LR_TM_CS cells and on BaF3-Del_TM_CS cells were 1850 nM, 221 nM and 233 nM, respectively.
As for `COc1cc(N2CCC(N3CCN(C)CC3)CC2)ccc1Nc1ncc(Cl)c(Nc2cccc3c2N(S(=O)(=O)C2CC2)CC3)n1` [Example 7, 5-chloro-N^4-(1-(cyclopropylsulfonyl)indolin-7-yl)-N^2-(2-methoxy-4-(4-(4-methylpiperazin-1-yl)piperidin-1-yl)phenyl)pyrimidine-2,4-diamine], the pIC50 in test [1] is 9.24; in test [2], 8.74; in test [3], 9.21. Moreover, the GI50 was 457 nM on BaF3-WT cells, 81.6 nM on BaF3-LR_TM_CS cells and 53.9 nM at BaF3-Del_TM_CS cells.
As to `COc1cc(N2CCC(N3CCN(C)CC3)CC2)ccc1Nc1ncc(Cl)c(Nc2cccc3c2N(S(=O)(=O)CCc2ccccc2)CC3)n1` [Example 8, 5-chloro-N^2-(2-methoxy-4-(4-(4-methylpiperazin-1-yl)piperidin-1-yl)phenyl)-N^4-(1-(phenethylsulfonyl)indolin-7-yl)pyrimidine-2,4-diamine], the pIC50 is 6.92 in test [1], 7.85 in test [2] and 7.68 in test [3]. The GI50 at BaF3-WT cells amounted to 1860 nM; at BaF3-LR_TM_CS cells, 730 nM; on BaF3-Del_TM_CS cells, 630 nM.
`COc1cc(N2CCC(N3CCN(C)CC3)CC2)ccc1Nc1ncc(Cl)c(Nc2cccc3c2N(S(=O)(=O)C(C)(C)C)CC3)n1` [Example 9, N^4-(1-(tert-butylsulfonyl)indolin-7-yl)-5-chloro-N^2-(2-methoxy-4-(4-(4-methylpiperazin-1-yl)piperidin-1-yl)phenyl)pyrimidine-2,4-diamine]: the pIC50 in test [1] is 6.73; in test [2], 6.73; in test [3] it was 7.89. The results for the GI50 at BaF3-WT cells, at BaF3-LR_TM_CS cells and at BaF3-Del_TM_CS cells were 1640 nM, 428 nM and 455 nM, respectively.
For the molecule `COc1cc(N2CCC(N3CCN(C)C4(CC4)C3)CC2)ccc1Nc1ncc(Br)c(Nc2cccc3c2N(S(C)(=O)=O)CC3)n1` [Example 192, 5-bromo-N2-(2-methoxy-4-(4-(4-methyl-4,7-diazaspiro[2.5]octan-7-yl)piperidin-1-yl)phenyl)-N4-(1-(methylsulfonyl)indolin-7-yl)pyrimidine-2,4-diamine], the results for the pIC50 in test [1], in test [2] and in test [3] were 9.70, 9.15 and 10.00, respectively.
For `CN1CCN(C2CCN(c3ccc(Nc4ncc(Br)c(Nc5cccc6c5N(S(C)(=O)=O)CC6)n4)c4c3OCCO4)CC2)CC1` [Example 193, 5-bromo-N2-(8-(4-(4-methylpiperazin-1-yl)piperidin-1-yl)-2,3-dihydrobenzo[b][1,4]dioxin-5-yl)-N4-(1-(methylsulfonyl)indolin-7-yl)pyrimidine-2,4-diamine], in that order: 9.70, 8.15 and 9.05.
For `CN1CCN(C2CCN(c3ccc(Nc4nc(Nc5cccc6c5N(S(C)(=O)=O)CC6)c5cc[nH]c5n4)cc3)CC2)CC1` [Example 194, N2-(4-(4-(4-methylpiperazin-1-yl)piperidin-1-yl)phenyl)-N4-(1-(methylsulfonyl)indolin-7-yl)-7H-pyrrolo[2,3-d]pyrimidine-2,4-diamine], in that order: 9.70, 7.78 and 10.00.
For `C#Cc1cnc(Nc2ccc(N3CCC(N4CCN(C)CC4)CC3)cc2OC)nc1Nc1cccc2c1N(S(C)(=O)=O)CC2` [Example 196, 5-ethynyl-N2-(2-methoxy-4-(4-(4-methylpiperazin-1-yl)piperidin-1-yl)phenyl)-N4-(1-(methylsulfonyl)indolin-7-yl)pyrimidine-2,4-diamine], in that order: 8.82, 8.03 and 8.89.
In the case of `COc1cc(N2CCC(N3CCN(C)CC3)CC2)c(C)cc1Nc1nc(N)c(Br)c(Nc2cccc3c2N(S(C)(=O)=O)CC3)n1` [Example 197, 5-bromo-N2-(2-methoxy-5-methyl-4-(4-(4-methylpiperazin-1-yl)piperidin-1-yl)phenyl)-N4-(1-(methylsulfonyl)indolin-7-yl)pyrimidine-24,6-triamine], the results for the pIC50 in test [1], in test [2] and in test [3] were 8.54, 8.92 and 8.92, respectively.
